Test results reported in patent publication US8515150B2, “Mathematical image analysis based cell reprogramming with applications for epigenetic and non-epigenetic base induced pluripotent stem cell derivation” (The Charles Stark Draper Laboratory, Inc., priority 2009, dated 2013).

What was measured:
fibroblasts = settings: added to fibroblasts, alone; cited from earlier work
hESC [1] = assay: TSA toxicity in hESC; assay type: cell-based, human
hESC [2] = settings: independent of feeders or recombinant growth factors; cited from earlier work
hESC [3] = assay: BMP4-induced differentiation of hESC colonies; assay type: cell-based, human; settings: hESC line WA07, 100 ng/ml BMP4, 4 days; confirmed by CDX2 immunostaining
Description: Pluripotent hESC cultures, line WA07 (a, d, g, i) were compared to hESC that were differentiated in vitro for 4 days in culture with 100 ng/ml BMP4 (b, e, h, j). The squamous epithelial monolayer that was formed is trophectoderm, found in the outer shell of blastocysts and destined to form the placenta. Fixed colonies were stained with the DNA dye, Hoechst 33342 (a, b) and with antibodies to the pluripotency marker OCT4 (d) and the trophectoderm marker, CDX2 (e). Morphological differences that are characteristic of the spreading colonies include an increase in cell (c) and nuclear size (f). The Hoechst image of 4 colonies were analyzed for nuclear size and number of nuclei per colony area (average cell area) and differences between pluripotent and trophectoderm colony morphology were significant at p<0.05 by Students T test. Colony morphology in live cells (g, h), not fixed and immunostained as was performed in (a-f), is provided by the distribution of spatial frequencies in the image (i, j). […] Spatial frequencies are higher in pluripotent than in TE colonies and can be more completely measured using wavelet analysis, a generalized 2D, multiscalar measure of image texture. […] Empirical probability density functions (k-l) for three detail subbands of the line scans in (i) and (j) quantify the concept of spatial frequency. […]

In the case of “FGF2: single growth factor added to media or fibroblasts”, the “effect on expression of endogenous pluripotency markers” value (fibroblasts) is given as “increased expression of endogenous pluripotency markers”.

In the case of CC(/C=C/C(=O)NO)=C\[C@@H](C)C(=O)c1ccc(N(C)C)cc1 [TSA, trichostatin A], the “highest concentration without toxic effects” value (hESC [1]) is listed as 1 nM and the effect on self-renewal (hESC [2]) is listed as “activates a self-renewal program in hESC”.

B1: BMP4: growth factor bone morphogenic protein, BMP4 (protein, UniProt P12644 293-408, looked up)
Bone morphogenetic protein 4: SPKHHSQRARKKNKNCRRHSLYVDFSDVGWNDWIVAPPGYQAFYCHGDCPFPLADHLNSTNHAIVQTLVNSVNSSIPKACCVPTELSAISMLYLDEYDKVVLKNYQEMVVEGCGCR
With B1 the differentiation outcome (hESC [3]) was “form trophectoderm”.
